According to patent US10202351B2, “Pyrazolyl derivatives as pest control agents” (BAYER ANIMAL HEALTH GMBH, priority 2015, dated 2019):

Key:
Boophilus microplus = Boophilus microplus injection test; format: in vivo; settings: after 7 days, laying of fertile eggs
Description: Solvent: dimethyl sulfoxide […] The animals are transferred into dishes and kept in a climate-controlled room. Efficacy is assessed after 7 days by laying of fertile eggs. Eggs which are not visibly fertile are stored in a climate-controlled cabinet until the larvae hatch after about 42 days.

Ctenocephalides felis [1] = assay: Ctenocephalides felis oral test; format: in vivo; settings: kill after 2 days
Excerpt: Solvent: dimethyl sulfoxide […] Dilution with citrated cattle blood gives the desired concentration. About 20 unfed adult cat fleas (Ctenocephalides felis) are placed into a chamber which is closed at the top and bottom with gauze. A metal cylinder whose bottom end is closed with parafilm is placed onto the chamber. The cylinder contains the blood/active ingredient formulation, which can be imbibed by the fleas through the parafilm membrane.

Phaedon cochleariae = Phaedon cochleariae spray test; format: in vivo; settings: larvae on Chinese cabbage leaf discs, after 7 days
Description: (§1) Solvent: 78.0 parts by weight of acetone • • 1.5 parts by weight of dimethylformamide Emulsifier: alkylaryl polyglycol ether […] To produce further test concentrations, the formulation is diluted with emulsifier-containing water. Discs of Chinese cabbage leaves (Brassica pekinensis) are sprayed with an active ingredient formulation of the desired concentration and, after drying, populated with larvae of the mustard beetle (Phaedon cochleariae).

Tetranychus urticae = Tetranychus urticae spray test, OP-resistant; format: in vivo; settings: all stages on bean leaf discs, after 6 days
Description: Solvent: 78.0 parts by weight of acetone • • 1.5 parts by weight of dimethylformamide Emulsifier: alkylaryl polyglycol ether […] To produce further test concentrations, the formulation is diluted with emulsifier-containing water. Discs of bean leaves (Phaseolus vulgaris) infested with all stages of the greenhouse red spider mite (Tetranychus urticae) are sprayed with an active ingredient formulation of the desired concentration.

[2] = logP determination by HPLC on reversed-phase column (EEC Directive 79/831 Annex V.A8); format: physicochemical
Lucilia cuprina = Lucilia cuprina test; format: in vivo; settings: L1 larvae, kill after 2 days
Description: (§2) Solvent: dimethyl sulfoxide
(§3) To produce a suitable preparation of active compound, 10 mg of active compound are mixed with 0.5 ml of dimethyl sulfoxide, and the concentrate is diluted with water to the desired concentration.
About 20 L1 larvae of the Australian sheep blowfly (Lucilia cuprina) are transferred into a test vessel containing minced horsemeat and the active compound formulation of the desired concentration.
After 2 days, the kill in % is determined. 100% means that all the larvae have been killed; 0% means that no larvae have been killed.

Musca domestica = Musca domestica test; format: in vivo; settings: adult houseflies, kill after 2 days
Description: as §2, §3
Vessels containing a sponge treated with sugar solution and the active ingredient formulation of the desired concentration are populated with 10 adult houseflies (Musca domestica)).
After 2 days, the kill in % is determined. 100% means that all of the flies have been killed; 0% means that none of the flies have been killed.

Spodoptera frugiperda = Spodoptera frugiperda spray test; format: in vivo; settings: application rate 100 g/ha, caterpillars on maize leaf discs, after 7 days
Description: as §1, with “Leaf discs” for “Discs”, “maize (Zea mays)” for “Chinese cabbage leaves (Brassica pekinensis)”, “compound” for “ingredient”, “caterpillars” for “larvae”, “armyworm (Spodoptera frugiperda).” for “mustard beetle (Phaedon cochleariae).”

Ctenocephalides felis [3] = assay: Ctenocephalides felis in vitro contact test with adult cat fleas; format: in vivo; settings: application rate 5 μg/cm^2 (500 g/ha), after 48 h, dead or moribund fleas
Description: After the solvent has evaporated off, the tubes are populated with 5-10 adult cat fleas (Ctenocephalides felis), sealed with a perforated plastic lid and incubated in a horizontal position at room temperature and ambient humidity. After 48 h, efficacy is determined. To this end, the tubes are stood upright and the fleas are knocked to the base of the tube. Fleas which remain motionless at the base or move in an uncoordinated manner are considered to be dead or moribund.

[4] = application rate 100 ppm in citrated cattle blood
[5] = Table 1, HPLC C18, acetonitrile/water with formic acid
[6] = Table 3 intermediates, HPLC C18, acetonitrile/water with formic acid

| Compound | efficacy (Boophilus microplus; application rate 20 μg/animal) [%] | efficacy (Ctenocephalides felis [1]; [4]) [%] | efficacy (Lucilia cuprina; application rate 100 ppm) [%] | efficacy (Musca domestica; application rate 100 ppm) [%] | efficacy (Phaedon cochleariae; application rate 100 g/ha) [%] | efficacy (Spodoptera frugiperda) [%] | efficacy (Tetranychus urticae; application rate 100 g/ha) [%] | efficacy (Ctenocephalides felis [3]) [%] | further results |
| --- | --- | --- | --- | --- | --- | --- | --- | --- | --- |
| O=C(Nc1cccc(-c2cnn(-c3c(Cl)cc(C(F)(F)F)cc3Cl)c2)c1)c1ccncc1 [Example 3] | 100 | 90 | – | – | – | – | – | – | efficacy (Phaedon cochleariae; application rate 500 g/ha): 100%; efficacy (Tetranychus urticae; application rate 500 g/ha): 90%; lgP [2, 5]: lgP 3.2 |
| Cc1cc(C(F)(C(F)(F)F)C(F)(F)F)cc(C)c1-n1cc(-c2ccc(Cl)c(NC(=O)c3cccc(F)c3)c2)cn1 [Example 8] | 100 | – | – | – | – | – | – | – | lgP [2, 5]: lgP 5.59 |
| Cc1cc(C(F)(C(F)(F)F)C(F)(F)F)cc(C)c1-n1cc(-c2ccc(F)c(NC(=O)c3ccncc3)c2F)cn1 [Example 9] | 100 | 100 | 100 | 100 | 100 | 100 | 100 | – | lgP [2, 5]: lgP 3.92 |
| Cc1cc(C(F)(C(F)(F)F)C(F)(F)F)cc(C)c1-n1cc(-c2ccc(Cl)c(NC(=O)c3ccccc3F)c2)cn1 [Example 10] | 100 | – | – | – | – | – | – | – | lgP [2, 5]: lgP 6.06 |
| Cc1cc(C(F)(C(F)(F)F)C(F)(F)F)cc(C)c1-n1cc(-c2cnc(Cl)c(NC(=O)C3(C#N)CC3)c2)cn1 [Example 13] | 100 | 100 | 90 | 80 | – | 83 | – | – | lgP [2, 5]: lgP 4.69 |
| Cc1cc(C(F)(C(F)(F)F)C(F)(F)F)cc(C)c1-n1cc(-c2ccnc(NC(=O)c3ccc(F)cc3)c2)cn1 [Example 14] | 80 | – | – | – | – | – | – | – | lgP [2, 5]: lgP 4.69 |
| Cc1ncc(-c2cnn(-c3c(Cl)cc(C(F)(C(F)(F)F)C(F)(F)F)cc3Cl)c2)cc1NC(=O)c1ccc(F)cc1 [Example 17] | – | – | – | – | 100 | 100 | 100 | 100 | efficacy (Boophilus microplus; application rate 4 μg/animal): 100%; efficacy (Ctenocephalides felis [1]; application rate 20 ppm in citrated cattle blood): 100%; efficacy (Lucilia cuprina; application rate 20 ppm): 100%; efficacy (Musca domestica; application rate 20 ppm): 100% |
| O=C(Nc1cc(-c2cnn(-c3c(Cl)cc(C(F)(C(F)(F)F)C(F)(F)F)cc3Cl)c2)cnc1F)c1ccncc1 [Example 19] | 100 | 100 | 100 | 100 | 100 | 100 | 100 | 100 | – |
| Cc1cc(C(F)(C(F)(F)F)C(F)(F)F)cc(C)c1-n1cc(-c2ccc(N(C)C)c(NC(=O)c3ccncc3)c2)cn1 [Example 20] | 100 | 100 | – | 90 | 100 | 100 | 100 | 100 | – |
| COc1cc(C(=O)Nc2cc(-c3cnn(-c4c(Cl)cc(C(F)(C(F)(F)F)C(F)(F)F)cc4Cl)c3)ccc2F)ccc1F [Example 22] | 100 | 100 | 100 | 100 | 100 | 100 | 100 | – | – |
| Cc1cc(C(F)(C(F)(F)F)C(F)(F)F)cc(C(F)(F)F)c1-n1cc(-c2ccc(F)c(NC(=O)c3ccncc3)c2F)cn1 [Example 25] | 100 | 100 | 100 | 100 | 100 | 100 | 100 | 100 | – |
| Cc1cc(C(F)(C(F)(F)F)C(F)(F)F)cc(C(F)(F)F)c1-n1cc(-c2ccc(F)c(NC(=O)C3(C)CC3)c2)cn1 [Example 30] | 100 | 100 | 100 | 100 | 100 | 100 | – | 100 | – |
| COc1cccc(C(=O)Nc2cc(-c3cnn(-c4c(C)cc(C(F)(C(F)(F)F)C(F)(F)F)cc4C(F)(F)F)c3)ccc2F)c1 [Example 32] | 100 | 100 | 100 | 90 | 100 | 100 | – | 100 | – |
| Cc1cc(C(F)(C(F)(F)F)C(F)(F)F)cc(C(F)(F)F)c1-n1cc(-c2ccc(F)c(NC(=O)c3ccc(F)nc3)c2)cn1 [Example 39] | 100 | 100 | 100 | 100 | 100 | 100 | 100 | – | – |
| Cc1cc(C(F)(C(F)(F)F)C(F)(F)F)cc(C(F)(F)F)c1-n1cc(-c2ccc(F)c(NC(=O)c3ccc(F)nc3)c2F)cn1 [Example 40] | 100 | 100 | 100 | 100 | 100 | 100 | 100 | – | – |
| Cc1cc(C(F)(C(F)(F)F)C(F)(F)F)cc(C(F)(F)F)c1-n1cc(-c2ccc(F)c(NC(=O)c3ccc(C#N)nc3)c2)cn1 [Example 46] | 100 | 100 | 100 | 100 | 100 | 100 | – | 100 | – |
| Cc1cc(C(F)(C(F)(F)F)C(F)(F)F)cc(C(F)(F)F)c1-n1cc(-c2ccc(F)c(NC(=O)C3CSC3)c2F)cn1 [Example 65] | 80 | 100 | 100 | 100 | 100 | 100 | 100 | – | – |
| Cc1cc(C(F)(C(F)(F)F)C(F)(F)F)cc(C(F)(F)F)c1-n1cc(-c2cccc(NC(=O)c3ccc(C#N)nc3)c2F)cn1 [Example 69] | 100 | 100 | 100 | – | 100 | 100 | – | 100 | – |
| O=[N+]([O-])c1cccc(-c2cnn(-c3c(Cl)cc(C(F)(F)F)cc3Cl)c2)c1 [II-1] | – | – | – | – | – | – | – | – | lgP [2, 6]: lgP 4.32 |
| Cc1cc(C(F)(C(F)(F)F)C(F)(F)F)cc(C)c1-n1cc(-c2ccc(Cl)c([N+](=O)[O-])c2)cn1 [II-7, 4-(4-chloro-3-nitrophenyl)-1-[2,6-dimethyl-4-[1,2,2,2-tetrafluoro-1-(trifluoromethyl)ethyl]phenyl]pyrazole] | – | – | – | – | – | – | – | – | lgP [2, 6]: lgP 5.39; lgP ([2]; synthesis example): 5.39 |
| Nc1cccc(-c2cnn(-c3c(Cl)cc(C(F)(F)F)cc3Cl)c2)c1 [III-1] | – | – | – | – | – | – | – | – | lgP [2, 6]: lgP 2.90 |
| Cc1cc(C(F)(C(F)(F)F)C(F)(F)F)cc(C)c1-n1cc(-c2ccc(Cl)c(N)c2)cn1 [III-7, 2-chloro-5-[1-[2,6-dimethyl-4-[1,2,2,2-tetrafluoro-1-(trifluoromethyl)ethyl]phenyl]pyrazol-4-yl]aniline] | – | – | – | – | – | – | – | – | lgP [2, 6]: lgP 4.93; lgP ([2]; synthesis example): 4.93 |
| Cc1cc(C(F)(C(F)(F)F)C(F)(F)F)cc(C)c1-n1cc(-c2ccc(F)c(N)c2)cn1 [III-8] | – | – | – | – | – | – | – | – | lgP [2, 6]: lgP 4.47 |
| Cc1cc(C(F)(C(F)(F)F)C(F)(F)F)cc(C)c1-n1cc(-c2ccc(F)c(N)c2F)cn1 [III-9] | – | – | – | – | – | – | – | – | lgP [2, 6]: lgP 4.81 |
| Cc1cc(C(F)(C(F)(F)F)C(F)(F)F)cc(C)c1-n1cc(-c2cccc(N)c2F)cn1 [III-10] | – | – | – | – | – | – | – | – | lgP [2, 6]: lgP 4.61 |
